Tests used:
[1] = system: S. pneumoniae topoisomerase IV resistance mutations; details: cited from earlier work
[2] = system: S. pneumoniae gyrase resistance mutations; details: cited from earlier work
[3] = system: wild-type B. anthracis topoisomerase IV; assay type: biochemical, Bacillus anthracis

SMILES	CC3 (concentration of drug required to triple the percent DNA cleavage observed in the absence of drug) [3]	Max. DNA cleavage [3]	Relative potency/efficacy of DNA cleavage enhancement among quinolones [3]	also measured
O=C(O)c1cn(C2CC2)c2cc(N3CCNCC3)c(F)cc2c1=O [Ciprofloxacin]	–	–	–	Drop in potency with mutant enzyme [1]: > 16 fold; Drop in potency with mutant enzyme [2]: ~ 8 fold
Cc1c(N2CC[C@@H](CN)C2)c(F)cc2c(=O)n(N)c(=O)n(C3CC3)c12 [8-methyl-quinazoline-2,4-dione, 3-Amino-7-[(3S)-3-(aminomethyl)-1-pyrrolidinyl]-1-cyclopropyl-6-fluoro-8-methyl-2,4(1H,3H) -quinazolinedione]	0.20 µM	29.0%	–	Mg2+ concentration for half-maximal DNA cleavage [3]: ~ 0.35 mM; Mg2+ concentration for maximal DNA cleavage [3]: ~ 1 mM; Potency relative to ciprofloxacin (as reflected by the CC3 value) [3]: ~ 2.5 times
C[C@@H]1CN(c2c(F)c(N)c3c(=O)c(C(=O)O)cn(C4CC4)c3c2F)C[C@H](C)N1 [sparfloxacin]	–	–	least potent and efficacious quinolone examined	–
C[C@H]1COc2c(N3CCN(C)CC3)c(F)cc3c(=O)c(C(=O)O)cn1c23 [Levofloxacin, levofloxacin]	1.45 µM	30.4%	most efficacious	Drug concentration that generated maximal DNA cleavage [3]: 20 µM
